Assay results: US8173693B2, “Benzenesulfonamide derivatives and pharmaceutical composition thereof” (Purzer Pharmaceutical Co., Ltd., priority 2010, dated 2012)

What was measured:
COLO-205 Colon cancer = test: MTT assay; format: cell-based; conditions: Homo sapiens, 72 hr
Method: (§1) All cell lines were maintained in RPMI 1640 supplied with 10% fetal bovine serum and maintained in a humidified chamber at 37° C. containing 5% CO2. Then, all cell lines were treated with compounds for 72 hr and subsequently incubated with 0.4 mg/mL of MTT at 37° C. for 2 hr. The medium was removed, and DMSO was added to dissolve MTT precipitate. Cell proliferation was determined by measuring the optical density at 540 nm using a Thermomax microplate reader (Molecular Devices, Sunnyvale, Calif.), and the IC50 values of the benzenesulfonamide derivatives of the present invention were calculated.

HeLa Cervical cancer = test: MTT assay; format: cell-based; conditions: Homo sapiens, 72 hr
Method: as §1

[1] = system: WI-38 Normal lung fibroblast; test: MTT assay; format: cell-based; conditions: Homo sapiens
Method: as §1

[2] = system: WSI Normal skin fibroblast; test: MTT assay; format: cell-based
Method: as §1

[3] = system: Human breast carcinoma MCF-7 cells; test: SRB assay; format: cell-based; conditions: MCF7, 48 hr
Method: (§2) Human Bladder Cancer TSGH cells, Human hepatoblastoma HepG2 cells, Human colorectal adenocarcinoma HT-29 cells, human nasopharyngeal carcinoma KB cells, Human gastric adenocarcinoma AGS cells, Human breast carcinoma MCF-7 cells, lung carcinoma A549 cells, and Human prostate carcinoma PC-3 cells were used in the preliminary cytotoxicity assays of the benzenesulfonamide derivatives of the present invention, and the inhibition activity against the tumor cells was evaluated.
(§3) All cell lines were maintained in RPMI 1640 supplied with 10% fetal bovine serum into 96-well microtiter plates and maintained in a humidified chamber at 37° C. containing 5% CO2. After 24 hr, cell lines in partial wells were fixed in situ with 10% trichloroacetic acid (TCA) to represent a measurement at the time of drug addition (T0). Then, cell lines in other wells were incubated with the benzenesulfonamide derivatives of the present invention for an additional 48 hr, and fixed in situ with 10% TCA to represent a measurement at the time of stopping reaction (Tx). After rinsing the plates with PBS and air-drying, 0.4% sulforhodamine B solution (weight per volume in 1% acetic acid) was added to each well and the plates were incubated for 10 min at room temperature. Unbound sulforhodamine B was removed with 1% acetic acid and the plates were air-dried. Cells bound with sulforhodamine B was subsequently solubilized with 10 mM Tris base (Trizma; Sigma). Cell proliferation was determined by measuring the optical density at 515 nm using a Thermomax microplate reader (Molecular Devices, Sunnyvale, Calif.). The half-inhibition concention (GI50) of the benzenesulfonamide derivatives of the present invention was obtained from the detected optical density.

[4] = system: Human colorectal adenocarcinoma HT-29 cells; test: SRB assay; format: cell-based; conditions: 48 hr
Method: as §2, §3

[5] = system: Human gastric adenocarcinoma AGS cells; test: SRB assay; format: cell-based; conditions: 48 hr
Method: as §2, §3

[6] = system: Human hepatoblastoma HepG2 cells; test: SRB assay; format: cell-based; conditions: 48 hr
Method: as §2, §3

[7] = system: Human prostate carcinoma PC-3 cells; test: SRB assay; format: cell-based
Method: as §2, §3

[8] = system: lung carcinoma A549 cells; test: SRB assay; format: cell-based; conditions: Homo sapiens, 48 hr
Method: as §2, §3

[9] = system: lung carcinoma A549 cells; test: In vitro migration assay (scratch); format: cell-based; conditions: 0, 0.5, or 10 μM, 18 hr, microscope images
Method: Lung carcinoma A549 cells (BCRC 60074; BCRC) were maintained in RPMI 1640 supplied with 10% fetal bovine serum and maintained in a humidified chamber at 37° C. containing 5% CO2. All the cell lines were developed for two generations every week.
In the in vitro migration assay, a scratch was mechanically made on the monolayer of cells to form a line-shaped scratch with cytological exfoliation. The scratch may lead the edge of the cell monolayer to close.
When the monolayered A549 cells were saturated, a scratch was made using a 200-μL tip directly on the monolayer of the A549 cells. Cells were then treated with GM119 with a concentration of 0, 0.5, or 10 μM. After incubation for 18 hr, all the migrations were tracked with a microscope.

[10] = system: HUVECs (human umbilical vein endothelial cells); test: In vitro tube formation assay (capillary formation, VEGF-induced); format: cell-based
Method: At day 1, HUVECs (human umbilical vein endothelial cells) cocultured with human fibroblasts were incubated in optimized medium and maintained in a humidified chamber at 37° C. containing 5% CO2. […] The cells were stimulated with VEGF (25 ng/mL) without or with GM119 (0.1, 1 or 10 μM). The media were replaced at days 3, 6, and 8. At day 11, the tube-like structures of the umbilical vein endothelial cells were observed by an anti-human CD31 antibody (Kurabo, Tokyo, Japan), and the area of the tube-like structures was analyzed.

4T1-Luc cells [11] = test: In vitro analysis on cell morphology; format: cell-based, murine; conditions: 48 hr
Method: After the 4T1-Luc cells were treated with GM119, a phase-contrast microscope was used to observe the cell morphology of the 4T1-Luc cells. Cover glasses were placed in 6-well plates, and each well was seeded with 50,000 tumor cells. The tumor cells were developed in medium with 10% fetal bovine serum, and then treated with 0, 0.01, 0.1, 1, or 10 μM of GM119 for 48 hr. The cells were stained with Giemsa Stain solution (0.38 g of Giemsa powder, 15% of methanol, and 5% of glycerol). After the cells were washed, dried, and sealed, the images of the cells were photographed with a phase-contrast microscope.

4T1-Luc cells [12] = test: In vivo evaluation, short-time treatment, mice implanted with 4T1-Luc cells
Method: GM119 (25 mg/kg) was applied to a mouse implanted with 4T1-Luc cells for a short time, and then Taxol (10 mg/kg) was applied thereto to observe the effect of GM119 on the 4T1-Luc cells.
A suspension of 4T1-Luc cells in matrigel was injected into the breast adipocyte to obtain mice implanted with luciferase tumor cells. […] When the size of the tumor cells was achieved to 200-500 mm^3, the mice were divided into 2 groups, and the number of the mice in each group is ≧5. Then, 0 or 25 mg/kg of GM119 was abdominal-injected into the mice for 5 days, wherein GM119 was dissolved in cremophor, and the volume of injection to each mouse is 50 μl. Then, 0 or 10 mg/kg of Taxol was abdominal-injected into the mice for every 2 days until death of the mice. The weight and the number of the mice were recorded every day to analyze the change on the weight and the survival time of the mice. After the drugs were applied to the mice, the size of the tumor cells in the mice was evaluated with bioluminescence every two days.

[13] = system: Human hepatoblastoma HepG2 cells; test: SRB assay; format: cell-based; conditions: 48 hr; remark: listed apart in the source

With `COc1ccc(S(=O)(=O)Nc2cccc3c2[nH]c2c(C)ccc(C)c23)cc1` [Compound 6c, N-(5,8-Dimethyl-9H-carbazol-1-yl)-4-methoxybenzenesulfonamide] the IC50 (COLO-205 Colon cancer) was 50 nM, the IC50 (HeLa Cervical cancer) was 600 nM and the IC50 [1] was > 10000 nM. For the same molecule, the IC50 [2] was > 10000 nM, the GI50 [3] was 630 nM and the GI50 [4] was 320 nM. For the same molecule, the GI50 [5] was 600 nM, the GI50 [6] was 70 nM and the GI50 ([7]; 48 hr) was 610 nM. For the same molecule, the GI50 ([7]; Homo sapiens, PC-3, 48 h) was 500 nM, the IC50 ([7]; Homo sapiens, PC-3, 48 hr) was 1100 nM and the GI50 [8] was 280 nM. The “inhibition on the migration of the A549 cells” value [9] was “the inhibition on the migration of the A549 cells was greater as the concentration of the GM119 was increased”, the “inhibition activity compared with suramin” value ([10]; 10 μM GM119 vs 10 μM suramin) was “almost equivalent to that of suramin” and the “inhibition of formation of tube-like structures induced by VEGF” value ([10]; VEGF 25 ng/mL, GM119 0.1, 1 or 10 μM, day 11) was “can inhibit the formation of the tube-like structures”. The “growth of the 4T1 cells (microscope images)” value (4T1-Luc cells [11]; 0.01 μM) was “the growth of the 4T1 cells can be inhibited”, the “inhibition of the 4T1 cells (microscope images)” value (4T1-Luc cells [11]; 10 μM) was “the inhibition of the 4T1 cells is apparent” and the “survival of the mice” value (4T1-Luc cells [12]; short time: GM119 25 mg/kg abdominal-injected for 5 days, then Taxol 10 mg/kg every 2 days, FIG. 2) was “the survival of the mice can be greatly increased”. For the same molecule, the “growth of the tumor cells (bioluminescence)” value (4T1-Luc cells [12]; short-time treatment, GM119 25 mg/kg, Taxol 10 mg/kg) was “the growth of the tumor cells can be inhibited” and the IC50 [13] was 1000 nM.
